Data as given in a compilation of properties of binary mixtures (doi:10.1016/j.molliq.2022.119944).

Experiment: xn = mol fraction of the nth substance listed
Settings: 101.3 kPa

C=C[n+]1ccn(CCCC)c1.N[C@@H](Cc1c[nH]cn1)C(=O)[O-] + O
Settings | electrical conductivity [S/m] | viscosity [mPa·s]
293.15 K, x1 = 0.1 | – | 2.55
293.15 K, x1 = 0.3 | – | 10.63
293.15 K, x1 = 0.5 | – | 26.91
293.15 K, x1 = 0.7 | – | 92.2
293.15 K, x1 = 0.9 | – | 1475
293.15 K, x1 = 1 | – | 8300
303.15 K, x1 = 0.1 | 2.65 | 2.35
303.15 K, x1 = 0.5 | 3.61 | 21.73
303.15 K, x1 = 0.7 | 2.67 | 59.5
303.15 K, x1 = 1 | 0.07 | 5300
308.15 K, x1 = 0.1 | 2.94 | –
308.15 K, x1 = 0.3 | 3.79 | –
308.15 K, x1 = 0.5 | 3.85 | –
308.15 K, x1 = 0.7 | 2.95 | –
308.15 K, x1 = 0.9 | 0.75 | –
308.15 K, x1 = 1 | 0.089 | –
313.15 K, x1 = 0.1 | 3.12 | 2.08
313.15 K, x1 = 0.3 | 4.12 | 5.88
313.15 K, x1 = 0.5 | 4.08 | 17.2
313.15 K, x1 = 0.7 | 3.27 | 43.6
313.15 K, x1 = 0.9 | 0.99 | 1026
313.15 K, x1 = 1 | 0.123 | 2700
318.15 K, x1 = 0.1 | 3.32 | –
318.15 K, x1 = 0.3 | 4.38 | –
318.15 K, x1 = 0.5 | 4.37 | –
318.15 K, x1 = 0.7 | 3.6 | –
318.15 K, x1 = 0.9 | 1.27 | –
318.15 K, x1 = 1 | 0.162 | –
323.15 K, x1 = 0.1 | 3.58 | 1.7
323.15 K, x1 = 0.3 | 4.7 | 4.81
323.15 K, x1 = 0.5 | 4.58 | 14.68
323.15 K, x1 = 0.7 | 3.83 | 33.63
323.15 K, x1 = 0.9 | 1.64 | 930
333.15 K, x1 = 0.1 | – | 1.46
333.15 K, x1 = 0.5 | – | 14.17
333.15 K, x1 = 0.7 | – | 29.24
333.15 K, x1 = 0.9 | – | 550
333.15 K, x1 = 1 | – | 810
343.15 K, x1 = 0.1 | – | 1.04
343.15 K, x1 = 0.3 | – | 4
343.15 K, x1 = 0.5 | – | 13.4
343.15 K, x1 = 0.9 | – | 327
343.15 K, x1 = 1 | – | 500
353.15 K, x1 = 0.1 | – | 0.95
353.15 K, x1 = 0.3 | – | 3.68
353.15 K, x1 = 0.7 | – | 29
353.15 K, x1 = 0.9 | – | 116
353.15 K, x1 = 1 | – | 331

C=C[n+]1ccn(CCCC)c1.N[C@@H](CO)C(=O)[O-] + O
Settings | electrical conductivity [S/m] | viscosity [mPa·s]
293.15 K, x1 = 0.1 | – | 6.68
293.15 K, x1 = 0.5 | – | 95.4
293.15 K, x1 = 0.7 | – | 720
293.15 K, x1 = 0.9 | – | 2700
293.15 K, x1 = 1 | – | 18000
303.15 K, x1 = 0.3 | 2.86 | 13.51
303.15 K, x1 = 0.5 | 3.18 | 71.2
303.15 K, x1 = 0.7 | 2.61 | 490
303.15 K, x1 = 1 | 0.006 | 13600
308.15 K, x1 = 0.1 | 1.46 | –
308.15 K, x1 = 0.3 | 3.08 | –
308.15 K, x1 = 0.5 | 3.44 | –
308.15 K, x1 = 0.7 | 2.84 | –
308.15 K, x1 = 1 | 0.007 | –
313.15 K, x1 = 0.1 | 1.61 | 5.94
313.15 K, x1 = 0.3 | 3.31 | 10.76
313.15 K, x1 = 0.5 | 3.75 | 54.6
313.15 K, x1 = 0.7 | 3.19 | 446
313.15 K, x1 = 0.9 | 1.1 | 1159
313.15 K, x1 = 1 | 0.01 | 9100
318.15 K, x1 = 0.1 | 1.78 | –
318.15 K, x1 = 0.3 | 3.65 | –
318.15 K, x1 = 0.5 | 4.05 | –
318.15 K, x1 = 0.7 | 3.43 | –
318.15 K, x1 = 0.9 | 1.42 | –
318.15 K, x1 = 1 | 0.013 | –
323.15 K, x1 = 0.1 | 1.9 | 4.84
323.15 K, x1 = 0.3 | 3.9 | 8.81
323.15 K, x1 = 0.5 | 4.46 | 44.4
323.15 K, x1 = 0.7 | 3.82 | 400
323.15 K, x1 = 0.9 | 1.69 | 820
333.15 K, x1 = 0.1 | – | 4.82
333.15 K, x1 = 0.3 | – | 7.96
333.15 K, x1 = 0.7 | – | 396
333.15 K, x1 = 0.9 | – | 670
333.15 K, x1 = 1 | – | 2800
343.15 K, x1 = 0.1 | – | 4.57
343.15 K, x1 = 0.3 | – | 7.27
343.15 K, x1 = 0.5 | – | 37.75
343.15 K, x1 = 0.7 | – | 387
343.15 K, x1 = 0.9 | – | 610
353.15 K, x1 = 0.3 | – | 7.11
353.15 K, x1 = 0.7 | – | 385
353.15 K, x1 = 0.9 | – | 540

C=C[n+]1ccn(CCCC)c1.NCCCC[C@H](N)C(=O)[O-] + O
Settings | electrical conductivity [S/m] | viscosity [mPa·s]
293.15 K, x1 = 0.1 | – | 3.29
293.15 K, x1 = 0.7 | – | 95.3
303.15 K, x1 = 0.1 | 1.99 | 2.85
303.15 K, x1 = 0.3 | 2.61 | 5.21
303.15 K, x1 = 0.7 | 1.91 | 74.7
308.15 K, x1 = 0.3 | 2.78 | –
308.15 K, x1 = 0.5 | 3.12 | –
308.15 K, x1 = 0.7 | 2.3 | –
308.15 K, x1 = 0.9 | 1.23 | –
308.15 K, x1 = 1 | 0.154 | –
313.15 K, x1 = 0.1 | 2.36 | 2.38
313.15 K, x1 = 0.7 | 2.54 | 55.38
313.15 K, x1 = 0.9 | 1.34 | 1167
313.15 K, x1 = 1 | 0.176 | 3700
318.15 K, x1 = 0.1 | 2.51 | –
318.15 K, x1 = 0.3 | 3.29 | –
318.15 K, x1 = 0.5 | 3.6 | –
318.15 K, x1 = 0.7 | 2.95 | –
318.15 K, x1 = 0.9 | 1.45 | –
318.15 K, x1 = 1 | 0.195 | –
323.15 K, x1 = 0.1 | 2.78 | 1.97
323.15 K, x1 = 0.3 | 3.56 | 3.57
323.15 K, x1 = 0.7 | 3.28 | 42.7
323.15 K, x1 = 0.9 | 1.62 | 950
323.15 K, x1 = 1 | 0.214 | 1961
333.15 K, x1 = 0.1 | – | 1.58
333.15 K, x1 = 0.3 | – | 2.36
333.15 K, x1 = 0.5 | – | 36.92
333.15 K, x1 = 0.7 | – | 36.62
333.15 K, x1 = 1 | – | 1174
343.15 K, x1 = 0.3 | – | 2.2
343.15 K, x1 = 0.7 | – | 33.98
343.15 K, x1 = 1 | – | 780
353.15 K, x1 = 0.5 | – | 36.44
353.15 K, x1 = 0.7 | – | 33.87
353.15 K, x1 = 0.9 | – | 185
353.15 K, x1 = 1 | – | 560

C=Cn1cc[n+](CCCC)c1.NCC(=O)[O-] + O
Settings | electrical conductivity [S/m] | viscosity [mPa·s]
293.15 K, x1 = 0.1 | – | 7.17
293.15 K, x1 = 0.3 | – | 23.93
293.15 K, x1 = 0.7 | – | 403
293.15 K, x1 = 1 | – | 11700
303.15 K, x1 = 0.1 | 1.04 | 7.07
303.15 K, x1 = 0.3 | 1.75 | 19.67
303.15 K, x1 = 0.7 | 1.58 | 282
303.15 K, x1 = 0.9 | 0.412 | 1068
308.15 K, x1 = 0.3 | 1.94 | –
308.15 K, x1 = 0.5 | 2.95 | –
313.15 K, x1 = 0.1 | 1.19 | 6.73
313.15 K, x1 = 0.3 | 2.16 | 14.44
313.15 K, x1 = 0.5 | 3.34 | 33.65
313.15 K, x1 = 0.7 | 2.31 | 199
313.15 K, x1 = 0.9 | 0.653 | 730
313.15 K, x1 = 1 | 0.013 | 5900
318.15 K, x1 = 0.1 | 1.29 | –
318.15 K, x1 = 0.3 | 2.44 | –
318.15 K, x1 = 0.7 | 2.87 | –
318.15 K, x1 = 0.9 | 0.89 | –
318.15 K, x1 = 1 | 0.018 | –
323.15 K, x1 = 0.1 | 1.35 | 6.71
323.15 K, x1 = 0.3 | 2.63 | 11.28
323.15 K, x1 = 0.5 | 4.09 | 28.63
323.15 K, x1 = 0.7 | 3.25 | 168
323.15 K, x1 = 0.9 | 1.2 | 570
323.15 K, x1 = 1 | 0.021 | 3100
333.15 K, x1 = 0.1 | – | 5.87
333.15 K, x1 = 0.5 | – | 28.1
333.15 K, x1 = 0.7 | – | 156
333.15 K, x1 = 0.9 | – | 540
343.15 K, x1 = 0.1 | – | 5.29
343.15 K, x1 = 0.5 | – | 22.04
343.15 K, x1 = 0.7 | – | 132
343.15 K, x1 = 0.9 | – | 540
353.15 K, x1 = 0.1 | – | 5.08
353.15 K, x1 = 0.3 | – | 9.83
353.15 K, x1 = 0.7 | – | 104.8
